The values below come from patent US20220033397A1, “PHARMACEUTICAL COMPOUNDS AND THEIR USE AS INHIBITORS OF UBIQUITIN SPECIFIC PROTEASE 19 (USP19)” (ALMAC DISCOVERY LIMITED, priority 2018, published 2022).

This assay concerns the target T1, Full-length USP19 (Homo sapiens, UniProt O94966).
T1 construct: Full-length USP19 was purchased from Boston Biochem (E-576); purchased Boston Biochem E-576
T1 sequence (O94966 1-1318): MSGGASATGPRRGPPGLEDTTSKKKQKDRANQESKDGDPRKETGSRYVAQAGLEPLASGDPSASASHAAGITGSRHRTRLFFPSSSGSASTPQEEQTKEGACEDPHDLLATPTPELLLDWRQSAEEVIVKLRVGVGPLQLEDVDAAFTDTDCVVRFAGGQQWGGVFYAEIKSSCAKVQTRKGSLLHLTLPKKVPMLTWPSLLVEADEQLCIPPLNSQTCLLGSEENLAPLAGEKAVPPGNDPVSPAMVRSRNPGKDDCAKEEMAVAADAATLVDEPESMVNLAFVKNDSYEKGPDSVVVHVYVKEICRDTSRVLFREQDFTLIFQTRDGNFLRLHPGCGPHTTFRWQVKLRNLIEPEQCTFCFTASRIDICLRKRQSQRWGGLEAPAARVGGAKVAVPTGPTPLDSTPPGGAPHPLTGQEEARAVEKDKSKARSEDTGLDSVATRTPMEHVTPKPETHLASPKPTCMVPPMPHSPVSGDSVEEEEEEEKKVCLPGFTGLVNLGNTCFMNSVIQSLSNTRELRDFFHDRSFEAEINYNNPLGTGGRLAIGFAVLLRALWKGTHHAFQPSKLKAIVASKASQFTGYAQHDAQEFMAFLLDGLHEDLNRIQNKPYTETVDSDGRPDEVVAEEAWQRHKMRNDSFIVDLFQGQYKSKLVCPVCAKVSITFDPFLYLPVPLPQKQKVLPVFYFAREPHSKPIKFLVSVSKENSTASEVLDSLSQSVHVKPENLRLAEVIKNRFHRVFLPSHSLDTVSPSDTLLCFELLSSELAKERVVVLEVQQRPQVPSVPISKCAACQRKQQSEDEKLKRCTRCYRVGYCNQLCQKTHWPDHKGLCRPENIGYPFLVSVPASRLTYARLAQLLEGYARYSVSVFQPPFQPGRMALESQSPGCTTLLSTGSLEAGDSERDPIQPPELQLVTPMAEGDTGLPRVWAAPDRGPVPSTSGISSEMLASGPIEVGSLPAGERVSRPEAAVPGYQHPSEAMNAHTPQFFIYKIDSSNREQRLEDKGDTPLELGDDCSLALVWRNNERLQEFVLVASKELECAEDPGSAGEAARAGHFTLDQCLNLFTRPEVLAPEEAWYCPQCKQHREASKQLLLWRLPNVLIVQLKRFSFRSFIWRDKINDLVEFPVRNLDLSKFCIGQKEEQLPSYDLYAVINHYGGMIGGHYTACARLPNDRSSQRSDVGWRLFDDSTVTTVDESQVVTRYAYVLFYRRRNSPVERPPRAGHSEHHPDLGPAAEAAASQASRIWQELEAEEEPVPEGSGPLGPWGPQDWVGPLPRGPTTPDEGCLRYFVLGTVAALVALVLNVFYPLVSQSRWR
The assay can be described thus: USP19 fluorescence polarisation (FP) homogeneous assay with Ubiquitin-Lys-TAMRA substrate. Format: biochemical. To be noted: 2.5 nM USP19, 30 min pre-incubation, average of at least two duplicate experiments. A digest of the protocol: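 Full-length USP19 preincubated 30 min at RT with inhibitor (200 μM to 2 μM series, 8–18 points) before adding 500 nM Ubiquitin-Lys-TAMRA substrate.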
For orientation: In fluorescence polarisation assays a small probe gives low polarisation when free and higher when bound to something large.

Molecules are shown by their SMILES. A value given as a limit tells only on which side of the number the result lay.

Regarding `O=C(N1CC[C@@](O)(Cn2cnc(-c3ccccc3)cc2=O)C2(CCCC2)C1)N1CCS(=O)(=O)CC1c1ccccc1` (stereo partly drawn) [Example 335, (S)-3-((7-(1,1-Dioxido-3-phenylthiomorpholine-4-carbonyl)-10-hydroxy-7-azaspiro[4.5]decan-10-yl)methyl)-6-phenylpyrimidin-4(3H)-one], the IC50 is under 0.5 µM.

As to `CN1CCN(C(=O)N2CC[C@@](O)(Cn3cnc(-c4ccccc4)cc3=O)C3(CCCC3)C2)[C@H](c2ccccc2)C1` [Example 281, 3-(((S)-10-Hydroxy-7-((R)-4-methyl-2-phenylpiperazine-1-carbonyl)-7-azaspiro[4.5]decan-10-yl)methyl)-6-phenylpyrimidin-4(3H)-one], the IC50 is under 0.5 µM.

For the compound `O=C(N1CC[C@@](O)(Cn2cnc(-c3ccccc3)cc2=O)C2(CCCC2)C1)N1CCS(=O)(=O)C[C@H]1c1cc(F)ccc1F` [Example 394, 3-(((S)-7-((R)-3-(2,5-Difluoro-phenyl)-1,1-dioxidothio-morpholine-4-carbonyl)-10-hydroxy-7-aza-spiro[4.5]decan-10-yl)methyl)-6-phenylpyrimidin-4(3H)-one], the IC50 is under 0.5 µM.

In the case of `O=C(N1CC[C@@](O)(Cn2cnc(-c3ccccc3)cc2=O)C2(CCCC2)C1)N1CCNC[C@H]1c1cccc(F)c1F` [Example 367, 3-(((S)-7-((R)-2-(2,3-Difluoro-phenyl)piper-azine-1-carbonyl)-10-hydroxy-7-azaspiro[4.5]decan-10-yl)methyl)-6-phenylpyrimidin-4(3H)-one], the IC50 was under 0.5 µM.

For the compound `O=C(N1CCC(O)(Cn2cnc(-c3ccccc3)cc2=O)C2(CCCC2)C1)N1CCOCC1CC1CC1` (stereo not shown) [Example 229, 3-((7-(3-(Cyclopropylmethyl)morpholine-4-carbonyl)-10-hydroxy-7-azaspiro[4.5]decan-10-yl)methyl)-6-phenylpyrimidin-4(3H)-one], the IC50 was in the range of 5 to 50 µM.

For `Cc1cccc2c(=O)n(CC3(O)CCN(C(=O)[C@H](C)CC4CCCCC4)CC34CCCC4)cnc12` (stereo partly drawn) [Example 125, 3-((7-((R)-3-Cyclohexyl-2-methylpropanoyl)-10-hydroxy-7-azaspiro[4.5]decan-10-yl)methyl)-8-methylquinazolin-4(3H)-one], the IC50 lay in the range of 0.5 to 5 µM.

In the case of `O=C(NCc1ccccc1)N1CCC(O)(Cn2cnc(N3CCCC3)cc2=O)C2(CCCC2)C1` (stereo not shown) [Example 202, N-Benzyl-10-hydroxy-10-((6-oxo-4-(pyrrolidin-1-yl)pyrimidin-1(6H)-yl)methyl)-7-azaspiro[4.5]decane-7-carboxamide], the IC50 was 5 to 50 µM.

On to `CN(C)C(=O)c1cn(CC2(O)CCN(C(=O)N(C)CC3CCCCC3)CC23CCCC3)c(=O)cc1-c1ccccc1` (stereo not shown) [Example 82, N-(Cyclohexylmethyl)-10-((5-(dimethylcarbamoyl)-2-oxo-4-phenylpyridin-1(2H)-yl)methyl)-10-hydroxy-N-methyl-7-azaspiro[4.5]decane-7-carboxamide], for which the concentration for half-maximal inhibition (IC50) was under 0.5 µM.

Consider `C[C@H](CC(F)(F)F)C(=O)N1CCC(O)(CN2CC(C3CC3)OCC2=O)C2(CCCC2)C1` (stereo partly drawn) [Example 95, 6-Cyclopropyl-4-((10-hydroxy-7-((R)-4,4,4-trifluoro-2-methylbutanoyl)-7-azaspiro[4.5]decan-10-yl)methyl)morpholin-3-one], for which the IC50 was 50 to 250 µM.

`O=C(N1CCC(O)(Cn2ccc(-c3ccccc3)cc2=O)C2(CCCC2)C1)N1CCNCC1c1cc(F)ccc1F` [Example 374, 1-(((S)-7-((R)-2-(2,5-Difluorophenyl)piper-azine-1-carbonyl)-10-hydroxy-7-azaspiro[4.5]decan-10-yl)methyl)-4-phenylpyridin-2(1H)-one]: the IC50 is under 0.5 µM.

As to `O=C(N1CC(C(F)(F)F)C1)N1CC[C@@](O)(Cn2cnc(-c3ccccc3)cc2=O)C2(CCCC2)C1` [Example 221, (S)-3-((10-Hydroxy-7-(3-(trifluoromethyl)azetidine-1-carbonyl)-7-azaspiro[4.5]decan-10-yl)methyl)-6-phenylpyrimidin-4(3H)-one], the IC50 lay within 0.5 to 5 µM.

For the compound `O=C(N1CCC(O)(Cn2cnc(-c3ccccc3)cc2=O)C2(CCCC2)C1)N1CCNCC1C1CCC1` (stereo not shown) [Example 276, 3-((7-(2-Cyclobutylpiperazine-1-carbonyl)-10-hydroxy-7-azaspiro[4.5]decan-10-yl)methyl)-6-phenylpyrimidin-4(3H)-one], the IC50 is 5 to 50 µM.

In the case of `COCC1CNCCN1C(=O)N1CCC(O)(Cn2cnc(-c3ccccc3)cc2=O)C2(CCCC2)C1` (stereo not shown) [Example 277, 3-((10-Hydroxy-7-(2-(methoxymethyl)piperazine-1-carbonyl)-7-azaspiro[4.5]decan-10-yl)methyl)-6-phenylpyrimidin-4(3H)-one], the 50% inhibitory concentration (IC50) lay within 50 to 250 µM.

Turning to `CSc1ncc2c(=O)n(CC3(O)CCN(C(=O)[C@H](C)CC(F)(F)F)CC34CCCC4)ccc2n1` (stereo partly drawn) [Example 56, 6-((10-Hydroxy-7-((R)-4,4,4-trifluoro-2-methylbutanoyl)-7-azaspiro[4.5]decan-10-yl)methyl)-2-(methylthio)pyrido[4,3-d]pyrimidin-5(6H)-one], the IC50 is under 0.5 µM.

With `COc1cccc(F)c1-c1cc(=O)n(C[C@]2(O)CCN(C(=O)N3CCNC[C@H]3c3ccccc3)CC23CCCC3)cn1` [Example 381, 6-(2-Fluoro-6-meth-oxyphenyl)-3-(((S)-10-hydroxy-7-((R)-2-phenylpiperazine-1-carbonyl)-7-aza-spiro[4.5]decan-10-yl)methyl)pyrimidin-4(3H)-one], the IC50 is under 0.5 µM.

`CC(CC1CCCCC1)C(=O)N1CCC(O)(CN2CC(Cc3ccccc3)CC2=O)CC1` (stereo not shown) [Example 43, 4-Benzyl-1-((1-(3-cyclohexyl-2-methylpropanoyl)-4-hydroxypiperidin-4-yl)methyl)pyrrolidin-2-one]: the IC50 was 5 to 50 µM.

For the compound `O=C1COCCN1CC1(O)CCN(C(=O)N2CCOC[C@H]2c2ccccc2)CC12CCCC2` (stereo partly drawn) [Example 117, 4-((10-Hydroxy-7-((R)-3-phenylmorpholine-4-carbonyl)-7-azaspiro[4.5]decan-10-yl)methyl)morpholin-3-one], the IC50 was in the range of 5 to 50 µM.

Take `C[C@H](CC(F)(F)F)C(=O)N1CCC(O)(Cn2cnc3ccc(F)cc3c2=O)C2(CCCC2)C1` (stereo partly drawn) [Example 148, 6-Fluoro-3-((10-hydroxy-7-((R)-4,4,4-trifluoro-2-methylbutanoyl)-7-azaspiro[4.5]decan-10-yl)methyl)quinazolin-4(3H)-one]: the IC50 lay in the range of 5 to 50 µM.

Regarding `C[C@H](CC1CCCCC1)C(=O)N1CCC(O)(Cn2cc(C(=O)N(C)C)c3ccccc3c2=O)C2(CCCC2)C1` (stereo partly drawn) [Example 145, 2-((7-((R)-3-Cyclohexyl-2-methylpropanoyl)-10-hydroxy-7-azaspiro[4.5]decan-10-yl)methyl)-N,N-dimethyl-1-oxo-1,2-dihydroisoquinoline-4-carboxamide], the IC50 was in the range of 0.5 to 5 µM.

In the case of `Cn1nccc1-c1cc(=O)n(C[C@]2(O)CCN(C(=O)N3CCOC[C@H]3c3ccc(F)cc3)CC23CCCC3)cn1` [Example 284, 3-(((S)-7-((R)-3-(4-Fluorophenyl)morpholine-4-carbonyl)-10-hydroxy-7-azaspiro[4.5]decan-10-yl)methyl)-6-(1-methyl-1H-pyrazol-5-yl)pyrimidin-4(3H)-one], the IC50 is under 0.5 µM.

For `O=C(N1CC[C@@](O)(Cn2cnc(N3CCCC3)cc2=O)C2(CCCC2)C1)N1CCNC[C@H]1c1ccccc1` [Example 290, 3-(((S)-10-Hydroxy-7-((R)-2-phenylpiperazine-1-carbonyl)-7-azaspiro[4.5]decan-10-yl)methyl)-6-(pyrrolidin-1-yl)pyrimidin-4(3H)-one], the IC50 was under 0.5 µM.

As to `O=C(N1CC[C@@](O)(Cn2cnc(-c3ccccc3OC(F)(F)F)cc2=O)C2(CCCC2)C1)N1CCNC[C@H]1c1ccccc1` [Example 354, 3-(((S)-10-Hydroxy-7-((R)-2-phenylpiperazine-1-carbonyl)-7-azaspiro[4.5]decan-10-yl)methyl)-6-(2-(trifluorometh-oxy)phenyl) pyrimidin-4(3H)-one], the IC50 was under 0.5 µM.

The term IC50 denotes the concentration needed to halve the response being measured.
